Experimental data taken from US20240251792A1, “WEED CONTROL METHOD” (SYNGENTA CROP PROTECTION AG, priority 2021, published 2024).
Where two headings read alike, the source gives them in different places.

How the values were obtained:
Assay type in all cases: in vivo
AMARE [1] = assay: Biological efficacy, post-emergence glasshouse test (Table 2); conditions: 1000 g/ha, after 12 days
Outline: (§1)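 Herbicidal effect was rated as percent damage, from 0 (no effect) to 100 (complete kill), twelve days after a single application equivalent to 1000 g/ha. Treatment timing was one day after sowing for pre-emergence and seven days for post-emergence; growth conditions were 24/16 °C day/night, 14 h light.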

STEME [2] = assay: as above; conditions: 1000 g/ha, after 12 days
Outline: as §1

LOLPE [3] = assay: as above; conditions: 1000 g/ha, after 12 days
Outline: as §1

DIGSA [4] = assay: as above; conditions: 1000 g/ha, after 12 days
Outline: as §1

weeds and/or crops = assay: Post-emergence biological efficacy (Table 4); conditions: 1000 g/ha, evaluated after 13 days; for pest or weed control at 1000 g/ha: 312 h
Outline: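 Scores are visual damage (0 = none, 100 = total), read 13 days after treatment at 24/18 °C with 15 h light. Plants had been sown in standard soil and grown 14 days before a spray of compound in F50/acetone, diluted with 0.2% Genapol X080.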

SETFA = assay: Pre-emergence biological efficacy (Table 3); conditions: 1000 g/ha, after 13 days; for pest or weed control at 1000 g/ha: Setaria faberi, 312 h, read-out: evaluation (100=total damage to plant; 0=no damage to plant)
Outline: (§2)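 Pre-emergence spray applied one day post-sowing; aqueous solution from 50 g/l AMA-based formulation in 0.2% Genapol X080. Evaluation at 13 days, 0 = no damage, 100 = total damage.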

ECHCG = assay: Pre-emergence biological efficacy (Table 3); conditions: 1000 g/ha, after 13 days; for pest or weed control at 1000 g/ha: Echinochloa crus-galli, 312 h, read-out: evaluation (100=total damage to plant; 0=no damage to plant)
Outline: as §2

SOLNI = assay: Pre-emergence biological efficacy (Table 3); conditions: 1000 g/ha, after 13 days
Outline: as §2

AMARE [5] = assay: Pre-emergence biological efficacy (Table 3); conditions: 1000 g/ha, after 13 days; for pest or weed control at 1000 g/ha: Amaranthus retroflexus, 312 h, read-out: evaluation (100=total damage to plant; 0=no damage to plant)
Outline: as §2

IPOHE = assay: Pre-emergence biological efficacy (Table 3); conditions: 1000 g/ha, after 13 days; for pest or weed control at 1000 g/ha: Ipomoea hederacea, 312 h, read-out: evaluation (100=total damage to plant; 0=no damage to plant)
Outline: as §2

LOLPE [6] = assay: Pre-emergence biological efficacy (Table 3); conditions: 1000 g/ha, after 13 days
Outline: as §2

AMARE [7] = assay: Biological efficacy, pre-emergence glasshouse test (Table 2); conditions: 1000 g/ha, after 12 days
Outline: as §1

STEME [8] = assay: as above; conditions: 1000 g/ha, after 12 days
Outline: as §1

LOLPE [9] = assay: as above; conditions: 1000 g/ha, after 12 days
Outline: as §1

DIGSA [10] = assay: as above; conditions: 1000 g/ha, after 12 days
Outline: as §1

ZEAMX = assay: Pre-emergence biological efficacy (Table 3); conditions: 312 h, 1000 g/ha, after 13 days, read-out: evaluation (100=total damage to plant; 0=no damage to plant)
Outline: as §2

AMAPA = assay: Pre-emergence biological efficacy (Table 3); conditions: 312 h, 1000 g/ha, after 13 days, read-out: evaluation (100=total damage to plant; 0=no damage to plant)
Outline: as §2

[11] = Amaranthus retroflexus, AMARE, read-out: damage to plant AMARE (100=total damage; 0=no damage)
[12] = Echinochloa crus-galli, ECHCG, read-out: damage to plant ECHCG (100=total damage; 0=no damage)
[13] = Ipomoea hederacea, IPOHE, read-out: damage to plant IPOHE (100=total damage; 0=no damage)
[14] = Setaria faberi, SETFA, read-out: damage to plant SETFA (100=total damage; 0=no damage)

Structure (SMILES)	damage to plant LOLPE (100=total damage; 0=no damage) (weeds and/or crops)	damage to plant SOLNI (100=total damage; 0=no damage) (weeds and/or crops)	evaluation (100=total damage to plant; 0=no damage to plant) (SOLNI)	evaluation (100=total damage to plant; 0=no damage to plant) (LOLPE [6])	pest or weed control at 1000 g/ha (weeds and/or crops; [11])	pest or weed control at 1000 g/ha (weeds and/or crops; [12])	pest or weed control at 1000 g/ha (weeds and/or crops; [13])	pest or weed control at 1000 g/ha (weeds and/or crops; [14])	pest or weed control at 1000 g/ha (SETFA)	pest or weed control at 1000 g/ha (ECHCG)	pest or weed control at 1000 g/ha (AMARE [5])	pest or weed control at 1000 g/ha (IPOHE)	further results
COc1ccccc1C(F)(F)C(=O)O [Compound 1-9]	0	60	90	20	–	–	–	–	–	–	–	–	score (100=total damage to plant, 0=no damage to plant) (AMARE [1]): 90; score (100=total damage to plant, 0=no damage to plant) (STEME [2]): 80; score (100=total damage to plant, 0=no damage to plant) (LOLPE [3]): 0; score (100=total damage to plant, 0=no damage to plant) (DIGSA [4]): 0; damage to plant AMARE (100=total damage; 0=no damage) (weeds and/or crops; AMARE): 70; damage to plant ECHCG (100=total damage; 0=no damage) (weeds and/or crops; ECHCG): 0; damage to plant IPOHE (100=total damage; 0=no damage) (weeds and/or crops; IPOHE): 60; damage to plant SETFA (100=total damage; 0=no damage) (weeds and/or crops; SETFA): 0; evaluation (100=total damage to plant; 0=no damage to plant) (SETFA): 20; evaluation (100=total damage to plant; 0=no damage to plant) (ECHCG): 20; evaluation (100=total damage to plant; 0=no damage to plant) (AMARE [5]): 70; evaluation (100=total damage to plant; 0=no damage to plant) (IPOHE): 60; score (100=total damage to plant, 0=no damage to plant) (AMARE [7]): 80; score (100=total damage to plant, 0=no damage to plant) (STEME [8]): 60; score (100=total damage to plant, 0=no damage to plant) (LOLPE [9]): 0; score (100=total damage to plant, 0=no damage to plant) (DIGSA [10]): 0
COc1cccc(Cl)c1C(F)(F)C(=O)O [Compound 1-65, 2-(2-Chloro-6-methoxy-phenyl)-2,2-difluoro-acetic acid]	0	–	–	0	70%	0%	70%	0%	0%	0%	60%	40%	–
COc1c(Cl)ccc(Cl)c1C(F)(F)C(=O)O [Compound 1-326, 2-(3,6-dichloro-2-methoxy-phenyl)-2,2-difluoro-acetic acid]	0	–	–	10	80%	0%	80%	0%	10%	30%	50%	20%	–
O=C(O)C(F)(F)c1cccc2ccccc12 [Compound 1-397, 2,2-Difluoro-2-(1-naphthyl)acetic acid]	10	80	100	40	70%	20%	70%	10%	20%	60%	80%	80%	score (100=total damage to plant, 0=no damage to plant) (AMARE [1]): 70; score (100=total damage to plant, 0=no damage to plant) (STEME [2]): 80; score (100=total damage to plant, 0=no damage to plant) (LOLPE [3]): 0; score (100=total damage to plant, 0=no damage to plant) (DIGSA [4]): 0; score (100=total damage to plant, 0=no damage to plant) (AMARE [7]): 90; score (100=total damage to plant, 0=no damage to plant) (STEME [8]): 90; score (100=total damage to plant, 0=no damage to plant) (LOLPE [9]): 70; score (100=total damage to plant, 0=no damage to plant) (DIGSA [10]): 30
O=C(O)C(F)(F)c1c(Cl)ccc2cc(Cl)cnc12 [Compound 1-418, 2-(3,7-Dichloro-8-quinolyl)-2,2-difluoro-acetic acid]	0	90	10	0	50%	0%	40%	0%	50%	20%	30%	50%	–
O=C(O)C(F)(F)c1ccccc1OC(F)(F)F [Compound 1-465, 2,2-Difluoro-2-[2-(trifluoromethoxy)phenyl]acetic acid]	–	–	–	–	80%	60%	70%	30%	20%	20%	70%	20%	pest or weed control at 1000 g/ha (weeds and/or crops; AMAPA, read-out: damage to plant AMAPA (100=total damage; 0=no damage)): 80%; pest or weed control at 1000 g/ha (weeds and/or crops; ZEAMX, read-out: damage to plant ZEAMX (100=total damage; 0=no damage)): 20%; plant injury at 1000 g/ha (ZEAMX): 20%; pest or weed control at 1000 g/ha (AMAPA): 70%
COC(=O)C(F)(F)c1c(Cl)cccc1OC [Compound 2-65, Methyl 2-(2-chloro-6-methoxy-phenyl)-2,2-difluoro-acetate]	0	30	10	0	70%	40%	70%	10%	0%	0%	50%	70%	–
COC(=O)C(F)(F)c1c(Cl)ccc(Cl)c1OC [Compound 2-326, methyl 2-(3,6-dichloro-2-methoxy-phenyl)-2,2-difluoro-acetate]	0	–	–	10	70%	0%	40%	0%	10%	20%	40%	40%	–
COC(=O)C(F)(F)c1c(Cl)ccc2cc(Cl)cnc12 [Compound 2-418, Methyl 2-(3,7-dichloro-8-quinolyl)-2,2-difluoro-acetate]	0	–	–	0	70%	0%	80%	0%	20%	10%	60%	50%	–
